Biological target: T1, PD-1/PD-L1 protein/protein interaction (Homo sapiens, UniProt Q9NZQ7)
T1 construct: Recombinant human PD-L1 protein (19-238) with a His-tag at the C-terminus; purchased AcroBiosystems PD1-H5229 (PD-L1); PD1-H5257 (PD-1)
Experiment: PD-1/PD-L1 homogenous time-resolved fluorescence (HTRF) binding assay
Settings: not given
Protocol: Resolved Fluorescence (HTRF) Binding Assay
The assays were conducted in a standard black 384-well polystyrene plate with a final volume of 20 μL. Inhibitors were first serially diluted in DMSO and then added to the plate wells before the addition of other reaction components. The final concentration of DMSO in the assay was 1%. The assays were carried out at 25° C. in the PBS buffer (pH 7.4) with 0.05% Tween-20 and 0.1% BSA. […] Plates were centrifuged and proteins were preincubated with inhibitors for 40 min. The incubation was followed by the addition of 10 μL of HTRF detection buffer supplemented with Europium cryptate-labeled anti-human IgG (PerkinElmer-AD0212) specific for Fc and anti-His antibody conjugated to SureLight®-Allophycocyanin (APC, PerkinElmer-AD0059H). After centrifugation, the plate was incubated at 25° C. for 60 min. […] Final concentrations in the assay were […], 10 nM PD-L1, nM europium anti-human IgG and 20 nM anti-His-Allophycocyanin. IC50 determination was performed by fitting the curve of percent control activity versus the log of the inhibitor concentration using the GraphPad Prism 5.0 software.

T1 sequence (Q9NZQ7 19-238): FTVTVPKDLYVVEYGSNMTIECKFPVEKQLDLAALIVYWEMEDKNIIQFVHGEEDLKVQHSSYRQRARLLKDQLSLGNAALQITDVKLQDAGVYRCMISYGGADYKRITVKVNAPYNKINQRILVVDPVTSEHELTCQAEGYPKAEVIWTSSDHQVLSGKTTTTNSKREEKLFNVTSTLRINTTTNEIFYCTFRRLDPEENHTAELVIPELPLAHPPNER

`COc1cc2oc(-c3cccc(-c4cccc(OCCCN5CCOCC5)c4)c3C)nc2cc1CNC(C)(CO)C(=O)O` (centres unmarked) [Compound 21, 3-hydroxy-2-(((6-methoxy-2-(2-methyl-3′-(3-morpholinopropoxy)-[1,1′-biphenyl]-3-yl)benzo[d]oxazol-5-yl)methyl)amino)-2-methylpropanoic acid] and `COc1cc2oc(-c3cccc(-c4cccc(OCCCN5CCOCC5)c4)c3C)nc2cc1CN1CCCC1C(=O)O` (centres unmarked) [Compound 20, ((6-methoxy-2-(2-methyl-3′-(3-morpholinopropoxy)-[1,1′-biphenyl]-3-yl)benzo[d]oxazol-5-yl)methyl)proline] cannot be ordered by IC50: under 25 nM for the first, under 25 nM for the second.

`COc1cc2nc(-c3cccc(-c4cccc(OCCCN5CCOCC5)c4)c3C)oc2cc1CN1CCCCC1C(=O)O` (centres unmarked) [Compound 34, 1-((5-methoxy-2-(2-methyl-3′-(3-morpholinopropoxy)-[1,1′-biphenyl]-3-yl)benzo[d]oxazol-6-yl)methyl)piperidine-2-carboxylic acid] and `COc1cc2oc(-c3cccc(-c4cccc(CCCN5CCOCC5)c4)c3C)nc2cc1CN1CCCCC1C(=O)O` (centres unmarked) [Compound 4, 1-((6-methoxy-2-(2-methyl-3′-(3-morpholinopropyl)-[1,1′-biphenyl]-3-yl)benzo[d]oxazol-5-yl)methyl)piperidine-2-carboxylic acid] cannot be ordered by IC50: under 25 nM for the first, under 25 nM for the second.

`CCCNC(=O)NCCN(C)CCCOc1cccc(-c2cccc(-c3nc4cc(CN5CCCCC5C(=O)O)c(OC)cc4o3)c2C)c1C` (centres unmarked) [Compound 32, 1-((2-(2,2′-dimethyl-3′-(3-(methyl(2-(3-propylureido)ethyl)amino)propoxy)-[1,1′-biphenyl]-3-yl)-6-methoxybenzo[d]oxazol-5-yl)methyl)piperidine-2-carboxylic acid] and `COc1cc2oc(-c3cccc(-c4cccc(OCCCN(C)C)c4C)c3C)nc2cc1CN1CCCCC1C(=O)O` (centres unmarked) [Compound 30, 1-((2-(3′-(3-(dimethylamino)propoxy)-2,2′-dimethyl-[1,1′-biphenyl]-3-yl)-6-methoxybenzo[d]oxazol-5-yl)methyl)piperidine-2-carboxylic acid] cannot be ordered by IC50: under 25 nM for the first, under 25 nM for the second.

`COc1cc2oc(-c3cccc(-c4cccc(OCCCN5CCOCC5)c4C)c3C)nc2cc1CN1CCCCC1C(=O)O` (centres unmarked) [Compound 3, 1-((2-(2,2′-dimethyl-3′-(3-morpholinopropoxy)-[1,1′-biphenyl]-3-yl)-6-methoxybenzo[d]oxazol-5-yl)methyl)piperidine-2-carboxylic acid] and `COc1cc2oc(-c3cccc(-c4cccc(OCCCN5CCOCC5)c4F)c3C)nc2cc1CN1CCCCC1C(=O)O` (centres unmarked) [Compound 9, 1-((2-(2′-fluoro-2-methyl-3′-(3-morpholinopropoxy)-[1,1′-biphenyl]-3-yl)-6-methoxybenzo[d]oxazol-5-yl)methyl)piperidine-2-carboxylic acid] cannot be ordered by IC50: 1 nM for the first, under 25 nM for the second.

`COc1cc2nc(-c3cccc(-c4cccc(OCCCN5CCOCC5)c4)c3C)n(C)c2cc1CN1CCCCC1C(=O)O` (centres unmarked) [Compound 33, 1-((5-methoxy-1-methyl-2-(2-methyl-3′-(3-morpholinopropoxy)-[1,1′-biphenyl]-3-yl)-1H-benzo[d]imidazol-6-yl)methyl)piperidine-2-carboxylic acid] and `COc1cc2c(cc1CN1CCOCC1C(=O)O)nc(-c1cccc(-c3cccc(OCCCN4CCOCC4)c3)c1C)n2C` (centres unmarked) [Compound 14, 4-((6-methoxy-1-methyl-2-(2-methyl-3′-(3-morpholinopropoxy)-[1,1′-biphenyl]-3-yl)-1H-benzo[d]imidazol-5-yl)methyl)morpholine-3-carboxylic acid] cannot be ordered by IC50: under 25 nM for the first, under 25 nM for the second.

First: Cc1c(-c2ccccc2)cccc1-c1nc2cc(CN3CCCCC3C(=O)O)c(OC(C)C)cc2o1 (centres unmarked) [Compound 24, 1-((6-isopropoxy-2-(2-methyl-[1,1′-biphenyl]-3-yl)benzo[d]oxazol-5-yl)methyl)piperidine-2-carboxylic acid]
Second: COc1cc2oc(-c3cccc(-c4cccc(CCCCN5CCOCC5)c4)c3C)nc2cc1CN1CCCCC1C(=O)O (centres unmarked) [Compound 10, 1-((6-methoxy-2-(2-methyl-3′-(4-morpholinobutyl)-[1,1′-biphenyl]-3-yl)benzo[d]oxazol-5-yl)methyl)piperidine-2-carboxylic acid]
The IC50 of the first is lower: under 25 nM for the first, 25 to 150 nM for the second.

`COc1cc2oc(-c3cccc(-c4cccc(/C=C/CCN5CCOCC5)c4C)c3C)nc2cc1CN1CCCCC1C(=O)O` (centres unmarked) [Compound 7, (E)-1-((2-(2,2′-dimethyl-3′-(4-morpholinobut-1-en-1-yl)-[1,1′-biphenyl]-3-yl)-6-methoxybenzo[d]oxazol-5-yl)methyl)piperidine-2-carboxylic acid] and `COc1cc2oc(-c3cccc(-c4cccc(C/C=C/CN5CCOCC5)c4C)c3C)nc2cc1CN1CCCCC1C(=O)O` (centres unmarked) [Compound 6, (E)-1-((2-(2,2′-dimethyl-3′-(4-morpholinobut-2-en-1-yl)-[1,1′-biphenyl]-3-yl)-6-methoxybenzo[d]oxazol-5-yl)methyl)piperidine-2-carboxylic acid] cannot be ordered by IC50: under 25 nM for the first, under 25 nM for the second.

`COc1cc2oc(-c3cccc(-c4cccc(CC5OC5CN5CCOCC5)c4C)c3C)nc2cc1CN1CCCCC1C(=O)O` (centres unmarked) [Compound 27, 1-((2-(2,2′-dimethyl-3′-((3-(morpholinomethyl)oxiran-2-yl)methyl)-[1,1′-biphenyl]-3-yl)-6-methoxybenzo[d]oxazol-5-yl)methyl)piperidine-2-carboxylic acid] and `COc1cc2oc(-c3cccc(-c4cccc(CC5CC5CN5CCOCC5)c4C)c3C)nc2cc1CN1CCCCC1C(=O)O` (centres unmarked) [Compound 28, 1-((2-(2,2′-dimethyl-3′-((2-(morpholinomethyl)cyclopropyl)methyl)-[1,1′-biphenyl]-3-yl)-6-methoxybenzo[d]oxazol-5-yl)methyl)piperidine-2-carboxylic acid] fall in the same range of IC50: 25 to 150 nM for the first, 25 to 150 nM for the second.

`COc1cc2c(cc1CN1CCCCC1C(=O)O)nc(-c1cccc(-c3cccc(OCCCN4CCOCC4)c3F)c1C)n2C` (centres unmarked) [Compound 13, 1-((2-(2′-fluoro-2-methyl-3′-(3-morpholinopropoxy)-[1,1′-biphenyl]-3-yl)-6-methoxy-1-methyl-1H-benzo[d]imidazol-5-yl)methyl)piperidine-2-carboxylic acid] and `COc1cc2nc(-c3cccc(-c4cccc(OCCCN5CCOCC5)c4F)c3C)n(C)c2cc1N1CCCCC1C(=O)O` (centres unmarked) [Compound 12, 1-(2-(2′-fluoro-2-methyl-3′-(3-morpholinopropoxy)-[1,1′-biphenyl]-3-yl)-5-methoxy-1-methyl-1H-benzo[d]imidazol-6-yl)piperidine-2-carboxylic acid] cannot be ordered by IC50: under 25 nM for the first, under 25 nM for the second.

`COc1cc2nc(-c3cccc(-c4cccc(OCCCN5CCOCC5)c4)c3C)sc2cc1CN1CCCCC1C(=O)O` (centres unmarked) [Compound 35, 1-((5-methoxy-2-(2-methyl-3′-(3-morpholinopropoxy)-[1,1′-biphenyl]-3-yl)benzo[d]thiazol-6-yl)methyl)piperidine-2-carboxylic acid] and `COc1cc2nc(-c3cccc(-c4cccc(OCCCN5CCOCC5)c4)c3C)sc2cc1CN1CCCC1C(=O)O` (centres unmarked) [Compound 26, ((5-methoxy-2-(2-methyl-3′-(3-morpholinopropoxy)-[1,1′-biphenyl]-3-yl)benzo[d]thiazol-6-yl)methyl)proline] cannot be ordered by IC50: under 25 nM for the first, under 25 nM for the second.

First: Cc1c(OCCCN2CCOCC2)cccc1-c1cccc(-c2nc3cc(CN(C)CC(=O)O)c(N(C)C)cc3o2)c1C [Compound 37, N-((2-(2,2′-dimethyl-3′-(3-morpholinopropoxy)-[1,1′-biphenyl]-3-yl)-6-(dimethylamino)benzo[d]oxazol-5-yl)methyl)-N-methylglycine]
Second: COc1cc2oc(-c3cccc(-c4cccc(OCCCN5CCOCC5)c4)c3C)nc2cc1CN1CCC(F)(F)CC1C(=O)O (centres unmarked) [Compound 16, 4,4-difluoro-1-((6-methoxy-2-(2-methyl-3′-(3-morpholinopropoxy)-[1,1′-biphenyl]-3-yl)benzo[d]oxazol-5-yl)methyl)piperidine-2-carboxylic acid]
The IC50 of the first is lower: under 25 nM for the first, 25 to 150 nM for the second. The first is the more potent here.

With `COc1cc2sc(-c3cccc(-c4cccc(OCCCN5CCOCC5)c4)c3C)nc2cc1CN1CCCC1C(=O)O` (centres unmarked) [Compound 25, ((6-methoxy-2-(2-methyl-3′-(3-morpholinopropoxy)-[1,1′-biphenyl]-3-yl)benzo[d]thiazol-5-yl)methyl)proline] the IC50 was under 25 nM.

Same assay, conditions: HTRF, recombinant human PD-1 (Fc tag) / PD-L1 (His-tag), 25° C., PBS pH 7.4; class symbols; read-out: IC50

`CCOc1cc2oc(-c3cccc(-c4cccc5c4CCN5C(=O)CCN4CCOCC4)c3C)nc2cc1CN1CCCCC1C(=O)O` (centres unmarked) [Compound 39, 1-((6-ethoxy-2-(2-methyl-3-(1-(3-morpholinopropanoyl)indolin-4-yl)phenyl)benzo[d]oxazol-5-yl)methyl)piperidine-2-carboxylic acid] and `COc1cc2oc(-c3cccc(-c4cccc(OCCCN5CCOCC5)c4)c3C)nc2cc1CNCCO` [Compound 1, 2-(((6-methoxy-2-(2-methyl-3′-(3-morpholinopropoxy)-[1,1′-biphenyl]-3-yl)benzo[d]oxazol-5-yl)methyl)amino)ethan-1-ol] cannot be ordered by IC50: under 25 nM for the first, under 25 nM for the second.

Same assay, conditions: HTRF, recombinant human PD-1 (Fc tag) / PD-L1 (His-tag), 25° C., PBS pH 7.4; numeric values; read-out: IC50

For `COc1cc2oc(-c3cccc(-c4ccccc4)c3C)nc2cc1CN1CCCCC1C(=O)O` (centres unmarked) [Compound 23, 1-((6-methoxy-2-(2-methyl-[1,1′-biphenyl]-3-yl)benzo[d]oxazol-5-yl)methyl)piperidine-2-carboxylic acid], the IC50 was 0.61 nM.

From patent US20210300909A1, “IMMUNOMODULATORS, COMPOSITIONS AND METHODS THEREOF” (BETTA PHARMACEUTICALS CO., LTD, priority 2018, published 2021)
